# From patent US20160324818A1, “DIET FOOD COMPOSITION INCLUDING DHA TO REDUCE SHORT-TERM AND LONG-TERM LOW-GRADE INFLAMMATION” (PRI S.A., priority 2013, published 2016)
# Key:
# Format in all cases: in vivo, human (obese patients, average BMI=33)
# [1] = system: ultrasensitive reactive protein C (PRCus); assay: Slimming study: blood level of ultrasensitive reactive protein C; details: DHA every day during slimming diet (FIG. 3); control group 12%
# Experimental: (§1) A study under medical supervision was conducted among obese patients (average BMI=33). The subjects were separated into two groups: • a “control” group consuming food compositions similar to those of the invention but without DHA; and • a “study” group consuming food compositions according to the invention comprising DHA.
# (§2) At the start of the program as well as after 30 days if necessary, then 60 days and at the end of 6 months the subjects underwent a blood test in order to evaluate their levels of pro-inflammatory and anti-inflammatory markers depending on their increase or loss of weight. The markers or molecules indicating the presence of inflammation that were tested for were leucocytes, neutrophils, the reactive protein C (PRC), TNF-α, interleukin 6, leptin, resistin and adiponectin.
# For the first 60 days of the study, the patients in the study group each received 500 mg of DHA per day solely through the consumption of food compositions and portions according to the invention. Their calorie intake was below 800 kcals per day and was presented chiefly in the form of food compositions or portions according to the invention. […]
# It can be seen from FIGS. 3 and 4 that there was a diminishing of the pro-inflammatory markers. Two inflammation markers associated with obesity were tested for and their levels were measured: these were ultrasensitive reactive protein C (PRCus) and leptin.
# PD1 = assay: Slimming study: blood level of anti-inflammatory marker PD1; details: day 60; control group reduced by 36%
# Experimental: as §1
# as §2, with “adiponectin. […]” for “adiponectin.”
# [2] = Slimming study under medical supervision: weight loss and waistline
# Experimental: as §1
# For the first 60 days of the study, the patients in the study group each received 500 mg of DHA per day solely through the consumption of food compositions and portions according to the invention. Their calorie intake was below 800 kcals per day and was presented chiefly in the form of food compositions or portions according to the invention. To be more precise, the patients consumed five food portions according to the invention during the day, two of them during the main meals where the portions were accompanied by vegetables in order to ensure their DHA intake especially. […] The goal was to re-educate the patient in terms of food intake. Traditional foods were gradually re-introduced into the patient's daily food intake in order to avoid deficiency and fatigue as well as to re-educate him or her on the food intake level.
# The progress of the waistline measurements in the two groups of patients is shown in the graph of FIG. 2. The waistline measurement makes it possible to evaluate loss of abdominal fat, a parameter associated with the metabolic syndrome. […]
smiles,measurement,setting,value
"CC/C=C\C/C=C\C/C=C\C/C=C\C/C=C\C/C=C\CCC(=O)O [DHA, docosahexaenoic acid]",reduction of PRC rate,[1],approximately 18%
same,change of PD1 level as compared with day 0,PD1,+83%
same,average weight loss,"[2]; 6 months (D-180) from D-0, same figure stated for both groups",about 20 kg
same,average loss in waistline measurement,"[2]; end of 60 days, same figure stated for each group",about 15 cm
